According to patent US20220401664A1, “FLUID DELIVERY DEVICES AND METHODS” (Droplette Inc., priority 2015, published 2022):
Where two headings read alike, the source gives them in different places.

Assays:
[1] = tested on: E. Coli DH5-α; assay: Bacterial inhibition by antibiotics passed through the device (OD 600 nm); assay type: cell-based; details: azithromycin 5 mg/mL, vancomycin 15 mg/mL, streptomycin 20 mg/mL, 6 hours, 37°, versus same antibiotics not passed through device
Procedure: Inhibition of bacterial strain E. Coli DH5-α with antibiotics dissolved in deionized water was tested by passing the antibiotics and water through the device. The three antibiotics tested were azithromycin (5 mg/mL), vancomycin (15 mg/mL), and streptomycin (20 mg/mL). As a positive control, the same antibiotics (not passed through the device) were tested. Additional controls included deionized water, and deionized water passed through the device. After addition of 100 μl of antibiotics or deionized water into 8 mL of LB broth, 100 μl of bacterial stock at 0.5 OD at 600 nm was added. The experiment was performed with 4 biological replicates and 3 technical replicates, providing a sample size of n=12. Samples were incubated at 37° centigrade and 200 RPM in a shaker for 6 hours and then optical density was measured at 600 nm in a spectrophotometer.

[2] = for Droplette Hydration, improvement over starting hydration: left hand
Procedure: In yet another experiment, 4 human subjects volunteered to have about 50 μL of sterile distilled water sprayed into their hand and have hydration levels measured with a Corneometer CM825 device. Skin was visually inspected for any discoloration at the time of study and after 24 hours, and subject comfort was assessed and self-reported. A pen was used to draw circles denoting a delivery site (having a circle diameter of about 1.5 cm) on the backs of the right and left hands. Hydration in the circled regions for both the right and left hands was assessed at the start with a Corneometer CM 825. A device having a configuration as disclosed in FIGS. 1-14 was used for about 30 seconds to deliver about 50 μL sterile water to the left hand of each subject. After about 5 seconds of rest, the hand was blotted dry with a tissue. About 100 μL of sterile water was topically applied to the back of the right hand of each subject in the circled region and spread to cover that area. After about 5 seconds of rest, that hand was blotted dry with a tissue.

[3] = for depth of dye penetration: delivered with the device held 1 cm away from skin; for dye penetration: standard aerosol (piezoelectric transducer only) held 1 cm away
Description: A device having a configuration as disclosed in FIGS. 1-14 was used in a test along with a standard aerosol generated using only the piezoelectric transducer to compare dye penetration between the device and the aerosol. A mix of water and brilliant blue dye with a molecular weight of 792 Daltons was used to test penetration. Both the aerosol and the device were held 1 cm away from skin, and the solution was sprayed onto chicken and porcine skin-covered tissue. The skin and tissue were cut and dye penetration was measured. […] In between a range of 500 to 800 Daltons, there are a number of antibiotics, such as those used to treat skin and soft tissue infections. One example is ceftaroline, which is an antibiotic for Methicillin-resistant Staphylococcus aureus.

In the case of [H]/N=C(/N)N[C@H]1[C@H](O)[C@@H](O)[C@H](O[C@@H]2O[C@@H](C)[C@](O)(C=O)[C@H]2O[C@@H]2O[C@@H](CO)[C@H](O)[C@@H](O)[C@@H]2NC)[C@@H](N/C(N)=N\[H])[C@@H]1O [streptomycin], the “bacterial inhibition after being passed through the device” value (from here on “bacterial inhibition”) [1] is reported as “retained their native function”.
For CN[C@H](CC(C)C)C(=O)N[C@H]1C(=O)N[C@@H](CC(N)=O)C(=O)N[C@H]2C(=O)N[C@H]3C(=O)N[C@H](C(=O)N[C@H](C(=O)O)c4cc(O)cc(O)c4-c4cc3ccc4O)[C@H](O)c3ccc(c(Cl)c3)Oc3cc2cc(c3O[C@@H]2O[C@H](CO)[C@@H](O)[C@H](O)[C@H]2O[C@H]2C[C@](C)(N)[C@H](O)[C@H](C)O2)Oc2ccc(cc2Cl)[C@H]1O [vancomycin], the “bacterial inhibition” value [1] was “retained their native function”.
In the case of O [water], the “water delivered into skin, device compared to topical application” value ([2]; 4 subjects, young and mature skin) is reported as “significantly more water was delivered”, the “Droplette Hydration, improvement over starting hydration” value ([2]; Subject 3, 1 Hour: Resting, about 50 μL sterile water by device) is reported as 58% improvement over and the “Topical Hydration, improvement” value ([2]; Subject 3, 1 Hour: Resting, about 100 μL sterile water topically, right hand) is reported as 0% improvement (back. The “Droplette Hydration, improvement over starting hydration” value ([2]; Subject 3, 2 Hours: had eaten lunch and consumed 2 cups of water, device) was 55% improvement over and the “Topical Hydration, improvement over baseline” value ([2]; Subject 3, 2 Hours: had eaten lunch and consumed 2 cups of water, topical, right hand) was 11% improvement over.
For CC[C@H]1OC(=O)[C@H](C)[C@@H](O[C@H]2C[C@@](C)(OC)[C@@H](O)[C@H](C)O2)[C@H](C)[C@@H](O[C@@H]2O[C@H](C)C[C@H](N(C)C)[C@H]2O)[C@](C)(O)C[C@@H](C)CN(C)[C@H](C)[C@@H](O)[C@]1(C)O [azithromycin], the “bacterial inhibition” value [1] was “retained their native function”.
For brilliant blue [brilliant blue dye], the “depth of dye penetration” value ([3]; chicken tissue) was 1.23 cm, the “depth of dye penetration” value ([3]; porcine tissue) was 1 cm and the dye penetration ([3]; chicken skin) was “did not penetrate either animal skin to any noticeable depth”. For the same compound, the dye penetration ([3]; porcine skin) was “did not penetrate either animal skin to any noticeable depth”.
